Reference: ChEMBL document CHEMBL2384909, “Development of Novel Alkene Oxindole Derivatives As Orally Efficacious AMP-Activated Protein Kinase Activators” (ACS Med Chem Lett, 2013)
The source made the active and inactive calls. The rule behind the calls is not given here.

Experiments:
[1] = test system: Mus musculus; assay: Upregulation of COX5B gene expression in C57BL/6J mouse muscles at 15 to 150 mg/kg, po; type: functional, organism-based; conditions: Muscle tissue
[2] = test system: Mus musculus; assay: Upregulation of UCP2 gene expression in C57BL/6J mouse muscles at 15 to 150 mg/kg, po; type: functional, organism-based; conditions: Muscle tissue
[3] = test system: Mus musculus; assay: Upregulation of PGC1alpha gene expression in C57BL/6J mouse muscles at 15 to 150 mg/kg, po; type: functional, organism-based; conditions: Muscle tissue
[4] = test system: Mus musculus; assay: Upregulation of PDK4 gene expression in C57BL/6J mouse muscles at 15 to 150 mg/kg, po; type: functional, organism-based; conditions: Muscle tissue
[5] = test system: Mus musculus; assay: Upregulation of medium chain acyl CoA dehydrogenase gene expression in C57BL/6J mouse muscles at 15 to 150 mg/kg, po; type: functional, organism-based; conditions: Muscle tissue
[6] = test system: Mus musculus; assay: Upregulation of long chain acyl CoA dehydrogenase gene expression in C57BL/6J mouse muscles at 15 to 150 mg/kg, po; type: functional, organism-based; conditions: Muscle tissue
[7] = test system: Mus musculus; assay: Upregulation of CPT2 gene expression in C57BL/6J mouse muscles at 15 to 150 mg/kg, po; type: functional, organism-based; conditions: Muscle tissue
[8] = test system: Mus musculus; assay: Upregulation of FABP3 gene expression in C57BL/6J mouse muscles at 15 to 150 mg/kg, po; type: functional, organism-based; conditions: Muscle tissue
[9] = test system: Mus musculus; assay: Upregulation of CPT1 gene expression in C57BL/6J mouse muscles at 15 to 150 mg/kg, po; type: functional, organism-based; conditions: Muscle tissue
[10] = test system: Mus musculus; assay: Antidiabetic activity in diet-induced obese C57BL/6J mouse assessed as reduction in plasma triglyceride at 150 mg/kg, po qd for 4 weeks (reference value: 0.62 +/- 0.02 mM); type: functional
[11] = test system: Mus musculus; assay: Antidiabetic activity in diet-induced obese C57BL/6J mouse assessed as reduction in plasma triglyceride at 50 mg/kg, po qd for 4 weeks (reference value: 0.62 +/- 0.02 mM); type: functional
[12] = test system: Mus musculus; assay: Antidiabetic activity in diet-induced obese C57BL/6J mouse assessed as reduction in plasma triglyceride at 15 mg/kg, po qd for 4 weeks (reference value: 0.62 +/- 0.02 mM); type: functional
[13] = test system: Mus musculus; assay: Antidiabetic activity in diet-induced obese C57BL/6J mouse assessed as increase in insulin tolerance at 15 to 150 mg/kg, po qd for 4 weeks by insulin tolerance test relative to control; type: functional, organism-based
[14] = test system: Mus musculus; assay: Antidiabetic activity in diet-induced obese C57BL/6J mouse assessed as decrease in AUC at 50 to 150 mg/kg, po qd for 4 weeks by glucose tolerance test relative to control; type: functional; design: scale not given: the % may be the effect or the level left; conditions: dose mg/kg 50-150
[15] = Oral bioavailability in Wistar rat at 10 mg/kg by LC-MS/MS analysis; type: ADME, organism-based; conditions: in vivo
[16] = AUC (0 to infinity) in Wistar rat at 10 mg/kg, po by LC-MS/MS analysis; type: ADME, organism-based; design: time infinity, dose 10 mg/kg, route oral; conditions: plasma
[17] = AUC (0 to 24 hrs) in Wistar rat at 10 mg/kg, po by LC-MS/MS analysis; type: ADME, organism-based; design: time < 24 hr, dose 10 mg/kg, route oral; conditions: plasma
[18] = Half life in Wistar rat at 10 mg/kg, po by LC-MS/MS analysis; type: ADME, organism-based; design: dose 10 mg/kg, route oral; conditions: in vivo
[19] = Plasma concentration in Wistar rat at 10 mg/kg, po after 4 hrs by LC-MS/MS analysis; type: ADME, organism-based; design: dose 10 mg/kg, route oral
[20] = AUC (0 to infinity) in Wistar rat at 2 mg/kg, iv by LC-MS/MS analysis; type: ADME, organism-based; design: time infinity, dose 2 mg/kg, route intravenous; conditions: plasma
[21] = AUC (0 to 24 hrs) in Wistar rat at 2 mg/kg, iv by LC-MS/MS analysis; type: ADME, organism-based; design: time < 24 hr, dose 2 mg/kg, route intravenous; conditions: plasma
[22] = Terminal half life in Wistar rat at 2 mg/kg, iv by LC-MS/MS analysis; type: ADME, organism-based; design: dose 2 mg/kg, route intravenous; conditions: in vivo, read-out: beta t1/2 (converted)
[23] = target: Voltage-gated inwardly rectifying potassium channel KCNH2 (Homo sapiens, UniProt Q12809); assay: Inhibition of human ERG
[24] = target: Cytochrome P450 2C19 (Homo sapiens, UniProt P33261); assay: Inhibition of CYP2C19 (unknown origin); type: ADME
[25] = target: Cytochrome P450 2C9 (Homo sapiens, UniProt P11712); assay: Inhibition of CYP2C9 (unknown origin); type: ADME
[26] = target: Cytochrome P450 3A4 (Homo sapiens, UniProt P08684); assay: Inhibition of CYP3A4 (unknown origin); type: ADME
[27] = test system: Liver microsomes; assay: Drug metabolism in rat liver microsomes; type: ADME, Microsome
[28] = Drug metabolism in mouse liver microsomes; type: ADME, Microsome
[29] = target: Glycogen synthase kinase-3 beta (Homo sapiens) (UniProt P49841); assay: Activity at GSK3beta (unknown origin)
[30] = target: T1, Aurora kinase A (Homo sapiens) (UniProt O14965); assay: Activity at Aurora A (unknown origin)
T1 sequence (whole entry): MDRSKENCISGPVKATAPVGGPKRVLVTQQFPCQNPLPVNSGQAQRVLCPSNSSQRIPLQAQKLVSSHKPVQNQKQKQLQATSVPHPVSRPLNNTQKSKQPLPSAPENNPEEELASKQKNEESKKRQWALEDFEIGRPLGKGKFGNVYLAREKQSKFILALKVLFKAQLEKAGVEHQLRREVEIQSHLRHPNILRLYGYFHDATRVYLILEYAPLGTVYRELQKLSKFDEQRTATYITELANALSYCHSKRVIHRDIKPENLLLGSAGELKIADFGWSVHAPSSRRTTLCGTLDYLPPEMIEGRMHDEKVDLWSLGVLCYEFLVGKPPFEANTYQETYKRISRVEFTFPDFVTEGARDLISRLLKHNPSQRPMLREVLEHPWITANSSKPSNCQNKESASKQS

[31] = test system: L6; assay: Activation of AMPK alpha1 D159A/alpha2 K45R mutant in rat L6 cells assessed as stimulation of glucose uptake after 15 mins; type: cell-based
[32] = target: Maternal embryonic leucine zipper kinase (Homo sapiens) (UniProt Q14680); assay: Activity at MELK (unknown origin)
[33] = target: Serine/threonine-protein kinase MARK2 (Homo sapiens) (UniProt Q7KZI7); assay: Activity at MARK2 (unknown origin)
[34] = test system: L6; assay: Induction of AMPK-mediated ACC phosphorylation in rat L6 cells by Western blotting analysis; type: cell-based
[35] = test system: L6; assay: Induction of AMPK phosphorylation in rat L6 cells by Western blotting analysis; type: cell-based
[36] = target: AMPK alpha2/beta1/gamma1 (Homo sapiens) (UniProt P54646+P54619+Q9Y478); assay: Activation of recombinant AMPK alpha2beta1gamma1 (unknown origin) at 20 ug/mL after 2 hrs by scintillation proximity assay relative to AMP; type: protein-complex assay
[37] = test system: Mus musculus; assay: Antidiabetic activity in diet-induced obese C57BL/6J mouse assessed as improved glucose tolerance at 50 to 150 mg/kg, po qd for 4 weeks by glucose tolerance test

Glycogen synthase kinase-3 beta (Homo sapiens), sequence (P49841 whole entry, looked up): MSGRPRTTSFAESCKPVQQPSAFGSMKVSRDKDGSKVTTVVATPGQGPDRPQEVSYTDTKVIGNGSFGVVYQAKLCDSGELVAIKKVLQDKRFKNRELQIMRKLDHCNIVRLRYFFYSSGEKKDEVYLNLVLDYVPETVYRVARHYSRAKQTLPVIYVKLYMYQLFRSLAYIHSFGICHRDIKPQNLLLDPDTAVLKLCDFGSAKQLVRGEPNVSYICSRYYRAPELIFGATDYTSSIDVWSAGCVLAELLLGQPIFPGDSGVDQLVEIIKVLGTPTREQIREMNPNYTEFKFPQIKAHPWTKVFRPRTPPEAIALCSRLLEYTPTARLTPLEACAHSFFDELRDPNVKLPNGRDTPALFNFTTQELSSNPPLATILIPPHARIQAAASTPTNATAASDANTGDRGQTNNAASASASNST
Cytochrome P450 3A4, sequence (P08684 whole entry): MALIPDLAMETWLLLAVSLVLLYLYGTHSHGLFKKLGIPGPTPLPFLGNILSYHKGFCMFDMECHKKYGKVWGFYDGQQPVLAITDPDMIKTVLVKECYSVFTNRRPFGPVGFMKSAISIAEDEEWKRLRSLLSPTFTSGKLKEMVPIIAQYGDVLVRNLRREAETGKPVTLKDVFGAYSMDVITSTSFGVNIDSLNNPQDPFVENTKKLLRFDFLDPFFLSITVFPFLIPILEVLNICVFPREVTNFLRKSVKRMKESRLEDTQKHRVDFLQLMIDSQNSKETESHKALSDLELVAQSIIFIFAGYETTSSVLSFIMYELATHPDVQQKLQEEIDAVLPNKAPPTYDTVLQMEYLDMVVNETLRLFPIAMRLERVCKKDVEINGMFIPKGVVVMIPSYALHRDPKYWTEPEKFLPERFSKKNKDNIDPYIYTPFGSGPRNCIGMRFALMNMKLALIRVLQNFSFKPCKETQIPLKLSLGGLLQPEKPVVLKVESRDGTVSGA
AMPK alpha2/beta1/gamma1 (Homo sapiens), sequence (P54619 whole entry partner): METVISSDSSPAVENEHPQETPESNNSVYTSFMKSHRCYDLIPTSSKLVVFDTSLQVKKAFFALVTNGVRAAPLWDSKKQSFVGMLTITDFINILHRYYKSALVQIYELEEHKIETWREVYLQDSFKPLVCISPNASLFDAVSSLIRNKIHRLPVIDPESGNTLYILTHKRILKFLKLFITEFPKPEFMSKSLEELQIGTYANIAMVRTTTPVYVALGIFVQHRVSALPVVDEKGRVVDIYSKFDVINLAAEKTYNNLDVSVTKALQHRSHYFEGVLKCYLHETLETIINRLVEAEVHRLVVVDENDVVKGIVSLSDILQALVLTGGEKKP
AMPK alpha2/beta1/gamma1 (Homo sapiens), sequence (P54646 whole entry): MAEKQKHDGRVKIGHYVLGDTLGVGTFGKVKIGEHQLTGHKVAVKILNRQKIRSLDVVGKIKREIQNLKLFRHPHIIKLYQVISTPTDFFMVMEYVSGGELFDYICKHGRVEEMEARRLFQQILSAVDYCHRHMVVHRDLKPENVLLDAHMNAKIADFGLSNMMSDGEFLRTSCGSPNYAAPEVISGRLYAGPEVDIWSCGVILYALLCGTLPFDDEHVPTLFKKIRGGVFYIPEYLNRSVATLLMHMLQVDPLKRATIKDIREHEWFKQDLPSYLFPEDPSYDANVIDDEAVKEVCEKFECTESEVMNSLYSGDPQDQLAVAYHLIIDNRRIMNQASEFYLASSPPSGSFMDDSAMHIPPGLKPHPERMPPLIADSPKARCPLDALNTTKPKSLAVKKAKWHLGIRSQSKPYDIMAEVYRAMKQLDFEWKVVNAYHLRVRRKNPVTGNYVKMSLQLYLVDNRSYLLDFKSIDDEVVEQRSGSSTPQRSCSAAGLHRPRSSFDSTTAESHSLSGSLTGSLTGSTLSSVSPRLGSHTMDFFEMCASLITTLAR
AMPK alpha2/beta1/gamma1 (Homo sapiens), sequence (Q9Y478 2-270 partner limits assumed): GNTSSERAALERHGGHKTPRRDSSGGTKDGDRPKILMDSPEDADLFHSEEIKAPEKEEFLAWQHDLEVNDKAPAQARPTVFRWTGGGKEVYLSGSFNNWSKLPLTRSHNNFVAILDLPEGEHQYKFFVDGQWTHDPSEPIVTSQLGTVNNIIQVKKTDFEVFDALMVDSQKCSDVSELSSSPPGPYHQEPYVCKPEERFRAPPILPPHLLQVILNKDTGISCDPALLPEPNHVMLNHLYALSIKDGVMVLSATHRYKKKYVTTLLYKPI
Voltage-gated inwardly rectifying potassium channel KCNH2, sequence (Q12809 whole entry): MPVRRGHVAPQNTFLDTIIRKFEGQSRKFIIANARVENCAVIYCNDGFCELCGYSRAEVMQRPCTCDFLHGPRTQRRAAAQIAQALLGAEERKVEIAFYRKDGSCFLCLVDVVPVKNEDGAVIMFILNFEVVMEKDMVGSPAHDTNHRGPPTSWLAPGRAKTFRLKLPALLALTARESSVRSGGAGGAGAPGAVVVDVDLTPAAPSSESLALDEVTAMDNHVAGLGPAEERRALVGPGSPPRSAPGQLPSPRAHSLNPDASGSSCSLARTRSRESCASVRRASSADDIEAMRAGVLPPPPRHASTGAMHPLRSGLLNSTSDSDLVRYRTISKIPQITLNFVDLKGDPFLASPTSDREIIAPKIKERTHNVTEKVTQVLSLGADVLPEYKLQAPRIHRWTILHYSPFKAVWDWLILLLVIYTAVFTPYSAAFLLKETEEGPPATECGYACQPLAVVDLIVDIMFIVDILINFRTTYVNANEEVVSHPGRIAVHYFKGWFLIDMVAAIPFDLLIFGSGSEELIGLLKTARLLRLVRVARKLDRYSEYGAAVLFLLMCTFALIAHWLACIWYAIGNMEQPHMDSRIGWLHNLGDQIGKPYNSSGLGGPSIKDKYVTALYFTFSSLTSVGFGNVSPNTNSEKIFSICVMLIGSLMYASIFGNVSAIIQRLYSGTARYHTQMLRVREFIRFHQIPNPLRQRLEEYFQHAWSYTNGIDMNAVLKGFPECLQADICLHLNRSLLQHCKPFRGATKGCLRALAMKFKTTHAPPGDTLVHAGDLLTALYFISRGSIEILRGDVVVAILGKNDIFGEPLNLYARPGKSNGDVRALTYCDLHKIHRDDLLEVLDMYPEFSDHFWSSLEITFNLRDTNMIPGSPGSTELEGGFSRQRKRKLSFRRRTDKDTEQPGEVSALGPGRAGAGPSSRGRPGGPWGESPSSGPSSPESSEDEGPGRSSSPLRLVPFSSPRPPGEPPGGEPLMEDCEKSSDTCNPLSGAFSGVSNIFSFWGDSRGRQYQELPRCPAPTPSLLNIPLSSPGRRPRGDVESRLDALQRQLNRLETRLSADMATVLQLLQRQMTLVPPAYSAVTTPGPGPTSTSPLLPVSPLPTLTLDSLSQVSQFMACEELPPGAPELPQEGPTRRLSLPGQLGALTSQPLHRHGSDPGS
Maternal embryonic leucine zipper kinase (Homo sapiens), sequence (Q14680 whole entry, looked up): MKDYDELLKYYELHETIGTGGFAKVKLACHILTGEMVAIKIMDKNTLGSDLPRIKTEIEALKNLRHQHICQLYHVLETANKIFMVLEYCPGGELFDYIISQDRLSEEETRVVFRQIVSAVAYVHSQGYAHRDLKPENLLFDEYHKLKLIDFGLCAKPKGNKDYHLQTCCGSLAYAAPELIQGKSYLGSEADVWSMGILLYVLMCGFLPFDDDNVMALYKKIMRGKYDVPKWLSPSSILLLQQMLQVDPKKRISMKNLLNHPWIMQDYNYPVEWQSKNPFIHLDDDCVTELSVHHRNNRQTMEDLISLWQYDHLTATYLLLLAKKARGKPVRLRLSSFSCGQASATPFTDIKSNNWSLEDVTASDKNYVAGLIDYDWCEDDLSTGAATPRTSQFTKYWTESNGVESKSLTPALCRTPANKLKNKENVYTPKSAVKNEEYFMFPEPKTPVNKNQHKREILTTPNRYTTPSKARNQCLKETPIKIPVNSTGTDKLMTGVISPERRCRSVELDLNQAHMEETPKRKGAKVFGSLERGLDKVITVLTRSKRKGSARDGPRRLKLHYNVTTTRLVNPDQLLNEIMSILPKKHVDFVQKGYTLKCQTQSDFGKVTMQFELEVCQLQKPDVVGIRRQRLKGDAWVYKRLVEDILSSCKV
Cytochrome P450 2C9, sequence (P11712 whole entry): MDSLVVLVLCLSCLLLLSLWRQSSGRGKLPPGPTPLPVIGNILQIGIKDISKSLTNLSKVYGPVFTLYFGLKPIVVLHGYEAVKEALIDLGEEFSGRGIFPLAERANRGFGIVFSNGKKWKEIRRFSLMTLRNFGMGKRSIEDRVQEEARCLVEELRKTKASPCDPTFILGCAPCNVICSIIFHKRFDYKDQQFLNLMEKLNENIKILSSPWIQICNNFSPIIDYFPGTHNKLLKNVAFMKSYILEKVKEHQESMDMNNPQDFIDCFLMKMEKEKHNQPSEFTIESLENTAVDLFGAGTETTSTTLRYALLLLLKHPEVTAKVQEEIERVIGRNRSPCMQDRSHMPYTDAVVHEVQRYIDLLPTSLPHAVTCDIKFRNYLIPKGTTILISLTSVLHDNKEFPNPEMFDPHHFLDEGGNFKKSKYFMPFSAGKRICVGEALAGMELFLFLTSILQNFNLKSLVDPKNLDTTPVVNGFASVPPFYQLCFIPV
Cytochrome P450 2C19, sequence (P33261 whole entry): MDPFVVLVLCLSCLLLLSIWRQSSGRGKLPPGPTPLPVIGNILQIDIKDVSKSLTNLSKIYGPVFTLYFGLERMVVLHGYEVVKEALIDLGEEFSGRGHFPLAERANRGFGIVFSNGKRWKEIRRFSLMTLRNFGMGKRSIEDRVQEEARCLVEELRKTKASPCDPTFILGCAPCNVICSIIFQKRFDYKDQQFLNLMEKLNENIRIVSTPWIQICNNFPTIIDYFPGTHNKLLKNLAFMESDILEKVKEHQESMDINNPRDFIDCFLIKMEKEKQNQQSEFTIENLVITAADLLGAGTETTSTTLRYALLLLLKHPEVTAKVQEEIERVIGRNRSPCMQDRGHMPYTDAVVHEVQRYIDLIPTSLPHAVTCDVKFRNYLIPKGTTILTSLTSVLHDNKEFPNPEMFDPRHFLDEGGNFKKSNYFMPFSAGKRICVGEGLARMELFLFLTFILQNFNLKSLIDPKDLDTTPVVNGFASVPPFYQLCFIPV

bioavailability [15]: 33.7%
AUC(0-inf) [16]: 29500 ng·h/mL
AUC(0-t) at 24 h [17]: 28900 ng·h/mL
half-life [18]: 4 h
concentration at 4 h [19]: 3270 ng/mL
AUC(0-inf) [20]: 17500 ng·h/mL
AUC(0-t) at 24 h [21]: 17300 ng·h/mL
half-life [22]: 3.94 h
inhibition (INH) [24]: Not Active
inhibition (INH) [25]: Not Active
inhibition (INH) [26]: Not Active
Drug metabolism [27]: Not Active
Drug metabolism [28]: Not Active
Activity [29]: inactive
Activity [30]: inactive
Activity [32]: inactive
Activity [33]: inactive
Efficacy [36]: 110%
Structure (SMILES): O=C(O)c1cccc(CN2C(=O)/C(=C(\c3ccccc3)c3ccc(Cl)cc3)c3ccccc32)c1
Activity [1]: Active
Activity [2]: Active
Activity [3]: Active
Activity [4]: Active
Activity [5]: Active
Activity [6]: Active
Activity [7]: Active
Activity [8]: Active
Activity [9]: Active
Activity [10]: 0.54 mM
Activity [11]: 0.52 mM
Activity [12]: 0.52 mM
Activity [13]: Active
Activity [14]: 30%
IC50 [23]: > 20 µM
Activity [31]: inactive
Activity [34]: Dose-dependent effect
Activity [35]: Dose-dependent effect
Activity [37]: Active
